Consider 11 molecules from ChEMBL document CHEMBL1201862, “PubChem BioAssay data set” (2004).

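How tested: cells in 96-well plates exposed to compound for 48 hours at five concentrations. GI50 is the concentration that inhibits growth by half.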 Activity calls are given as the source filed them. Cut-off read from the data, not from the text of the source: active = GI50 up to about 1.1 µM and inactive = higher.

Common to all, as to experiment: DTP human tumour cell line panel, 48 h
Experiment [1] relates to ACHN.
Experiment [2] relates to CAKI-1.
Experiment [3] relates to HCC 2998.
Experiment [4] concerns HCT-15.
The subject of experiment [5] is HOP-62.
Experiment [6] relates to HT-29.
The test system of experiment [7] is IGROV-1.
Experiment [8] relates to M14.
Experiment [9] deals with MDA-N.
Experiment [10] concerns NCI-H522.
Experiment [11] deals with NCI/ADR-RES.
Experiment [12] has as its system OVCAR-8.
Experiment [13] concerns SK-OV-3.
For experiment [14], the system named is SN12C.
For experiment [15], the system named is SNB-75.
For experiment [16], the system named is SR.
Experiment [17] relates to SW-620.
Experiment [18] concerns UACC-257.
Experiment [19] has as its system UO-31.
Experiment [20] relates to Malme-3M.

What is called GI50 is the concentration giving 50% growth inhibition.

Take `CCCCCCCCCCCCCCCC[N+](C)(C)Cc1ccc(F)cc1`: the GI50 in experiment [1] was 3.07 µM (inactive); in [2] it was 2.7 µM (inactive); in experiment [3], 1.47 µM (inactive); in experiment [4], 8.43 µM; in experiment [5] it was 1.5 µM (inactive); in experiment [6] it was 1.26 µM (inactive). For the same molecule, the GI50 was 0.383 µM (active) in [7]; 1.6 µM (inactive) in [8]; 1.96 µM (inactive) in experiment [9]; 0.724 µM (active) in [10]; 18.1 µM (inactive) in experiment [11]; 1.51 µM (inactive) in experiment [12]. In addition, the GI50 in experiment [13] was 2.2 µM (inactive); in experiment [14] it was 1.62 µM (inactive); in experiment [15], 1.39 µM (inactive); in [16] it was 1.54 µM (inactive); in experiment [17], 1.7 µM (inactive); in [18] it was 1.79 µM (inactive). In addition, in [19], the GI50 was 6.84 µM (inactive).

Regarding `Brc1ccc2c3c1[C@@H]1O[C@@H]1c1cccc(c1-3)[C@@H]1O[C@H]21`, the GI50 is 22.1 µM (inactive) in experiment [1]; 13.1 µM (inactive) in experiment [2]; 18.6 µM in experiment [4]; 19.5 µM (inactive) in experiment [5]; 17.6 µM (inactive) in [6]; 14.5 µM (inactive) in [8]. The GI50 in experiment [9] was 17.6 µM (inactive); in [20], 18.6 µM (inactive); in [10] it was 13.8 µM (inactive); in [11], 17.4 µM (inactive); in experiment [12] it was 13.8 µM (inactive); in experiment [13] it was 27.5 µM (inactive). Moreover, the GI50 was 17.3 µM (inactive) in [14]; 19.8 µM (inactive) in [15]; > 100 µM (inactive) in experiment [16]; 14.5 µM (inactive) in [17]; 28.4 µM (inactive) in experiment [18]; 15.4 µM (inactive) in experiment [19].

As to `O=S(=O)(NNc1ccccc1)c1ccccc1`, the GI50 in experiment [1] is 0.662 µM (active); in experiment [2], 1.28 µM (inactive); in experiment [3], 0.902 µM (active); in experiment [4], 11.5 µM; in experiment [5] it was 12.4 µM (inactive); in [6], 11.5 µM (inactive). For the same molecule, the GI50 was 10.2 µM (inactive) in experiment [7]; 0.671 µM (active) in [8]; 12.2 µM (inactive) in experiment [9]; 8.95 µM (inactive) in [10]; 10 µM (inactive) in experiment [11]; 28.5 µM (inactive) in experiment [12]. Besides, the GI50 in experiment [13] is 65.3 µM (inactive); in experiment [14], 4.49 µM (inactive); in experiment [15], 40 µM (inactive); in experiment [16] it was 11.2 µM (inactive); in [17], 26.3 µM (inactive); in experiment [18], 27.5 µM (inactive). Also, in experiment [19], the GI50 was 10.6 µM (inactive).

On to `C/C=C1\CC2C(=O)CCC2C2c3ccccc3OC12` (configuration not stated), for which the GI50 in experiment [1] is > 100 µM (inactive); in experiment [2] it was > 100 µM (inactive); in experiment [4], above 100 µM; in experiment [5] it was > 100 µM (inactive); in [6], > 100 µM (inactive); in experiment [7], > 100 µM (inactive). The GI50 in [8] was > 100 µM (inactive); in [9] it was 0.0718 µM (active); in [20], > 100 µM (inactive); in [10] it was > 100 µM (inactive); in experiment [11], > 100 µM (inactive); in [12], > 100 µM (inactive). In addition, the GI50 is > 100 µM (inactive) in [13]; < 0.01 µM (active) in [14]; > 100 µM (inactive) in experiment [15]; > 100 µM (inactive) in [16]; > 100 µM (inactive) in experiment [17]; > 100 µM (inactive) in experiment [18]. For the same molecule, the GI50 in [19] is > 100 µM (inactive).

Take `O=C(Nc1ccccc1)N(C1=NCC(CI)S1)c1ccc(F)c(F)c1` (configuration not stated): the GI50 in [1] was 49.4 µM (inactive); in experiment [2] it was 24.1 µM (inactive); in [3], 55.8 µM (inactive); in [4] it was 28.1 µM; in [5] it was > 100 µM (inactive); in [6], 27 µM (inactive). Moreover, the GI50 is 38.8 µM (inactive) in experiment [7]; 24.6 µM (inactive) in experiment [9]; 55.7 µM (inactive) in experiment [20]; 30.8 µM (inactive) in experiment [11]; 47.8 µM (inactive) in experiment [12]; > 100 µM (inactive) in [13]. Besides, the GI50 in experiment [14] was 81.5 µM (inactive); in experiment [15], 12.6 µM (inactive); in [16] it was 23.8 µM (inactive); in experiment [17] it was 28.2 µM (inactive); in experiment [18], 31 µM (inactive); in experiment [19], 44.7 µM (inactive).

As for `C=C(Cl)COC(=O)Nc1cccc(Cl)c1`, the GI50 was 34.9 µM (inactive) in [1]; 31.9 µM (inactive) in experiment [2]; 37.1 µM (inactive) in experiment [3]; 28.6 µM in experiment [4]; 38.3 µM (inactive) in [5]; 33.3 µM (inactive) in experiment [6]. In addition, the GI50 is 26.7 µM (inactive) in experiment [7]; 35.4 µM (inactive) in experiment [8]; 34.2 µM (inactive) in [9]; 25.1 µM (inactive) in experiment [10]; 29.3 µM (inactive) in [11]; 32.6 µM (inactive) in [12]. Also, the GI50 in experiment [13] was 72.8 µM (inactive); in experiment [14], 33.8 µM (inactive); in experiment [15] it was 26.4 µM (inactive); in [16] it was 51.1 µM (inactive); in [17], 39.3 µM (inactive); in [18] it was 31 µM (inactive). In addition, in [19], the GI50 is 12 µM (inactive).

On to `C1CC[C@H]2SSC3CCCC[C@H]3SSC2C1` (some centres not stated), for which the GI50 in experiment [3] was > 100 µM (inactive); in experiment [4] it was above 100 µM; in [5], > 100 µM (inactive); in experiment [6] it was > 100 µM (inactive); in experiment [7], > 100 µM (inactive); in experiment [8], > 100 µM (inactive). Moreover, the GI50 in experiment [9], in experiment [10], in experiment [11], in experiment [12], in experiment [13] and in experiment [14] was > 100 µM (inactive) throughout. In addition, the GI50 in experiment [15], in [16], in experiment [17], in experiment [18] and in experiment [19] was > 100 µM (inactive) throughout.

Regarding `CCOCc1c(C)cc(C)c(C2C(C(=O)c3ccccc3)N3c4ccccc4C=CC3C2(C#N)C(=O)OCC)c1C` (configuration not stated), the GI50 in [1] is 50.9 µM (inactive); in [2], 44 µM (inactive); in experiment [3] it was 18.1 µM (inactive); in [4], 44.2 µM; in [6], 32.3 µM (inactive); in experiment [7], 10.6 µM (inactive). For the same molecule, the GI50 in experiment [8] was 36.5 µM (inactive); in experiment [9], 27.4 µM (inactive); in experiment [11], 33.7 µM (inactive); in experiment [14], 61.5 µM (inactive); in experiment [16], 82.8 µM (inactive); in [17], 67.3 µM (inactive). Besides, the GI50 in experiment [18] is 50.1 µM (inactive); in [19], 49.1 µM (inactive).

For `CC(C)(C)OC(=O)NC1CCCC1C(O)(C1=CCCC1)C1=CCCC1` (configuration not stated), the GI50 was > 100 µM (inactive) in [1]; > 100 µM (inactive) in experiment [3]; above 100 µM in experiment [4]; > 100 µM (inactive) in [5]; 76.2 µM (inactive) in [6]; > 100 µM (inactive) in experiment [7]. Moreover, the GI50 in experiment [8], in experiment [9], in experiment [11], in [12], in [13] and in [14] was > 100 µM (inactive) each time. The GI50 in [15] was 48.1 µM (inactive); in experiment [16], > 100 µM (inactive); in experiment [17], > 100 µM (inactive); in [18], > 100 µM (inactive).

Regarding `COc1c(C)c(C/C=C(\C)CC/C=C(\C)CC/C=C(\C)CCC=C(C)C)c(OC)c(OC)c1OC`, the GI50 in [1] is > 100 µM (inactive); in experiment [2], > 100 µM (inactive); in experiment [3], > 100 µM (inactive); in experiment [4], above 100 µM; in experiment [5] it was > 100 µM (inactive); in experiment [6] it was > 100 µM (inactive). The GI50 in experiment [7], in [8], in experiment [9], in [10], in experiment [11] and in [12] was > 100 µM (inactive) each time. For the same molecule, the GI50 in [13], in experiment [14], in experiment [15], in experiment [16], in [17] and in experiment [18] was > 100 µM (inactive) in each case. Also, the GI50 in experiment [19] is > 100 µM (inactive).

For `COc1ccc(N2C(=O)C3c4[nH]c5ccccc5c4C4CCC(C(C)(C)C)CC4C3C2=O)c(C)c1` (configuration not stated), the GI50 in [1] was > 100 µM (inactive); in [2], > 100 µM (inactive); in [3], > 100 µM (inactive); in experiment [4], above 100 µM; in [5], > 100 µM (inactive); in experiment [6], > 100 µM (inactive). Moreover, the GI50 in experiment [7], in [8], in experiment [9], in experiment [10], in experiment [11] and in [12] was > 100 µM (inactive) in each case. Also, the GI50 in experiment [13], in experiment [14], in experiment [15], in experiment [16], in [17] and in experiment [18] was > 100 µM (inactive) throughout. Also, the GI50 in experiment [19] was > 100 µM (inactive).
